Measured values from patent US10004701B2, “Methods and compositions for treating infection” (UNIVERSITY OF ROCHESTER, priority 2012, dated 2018).
Where a name gives a salt, the structure may show the parent alone. Read-outs that look alike come from different tables or passages of the source.

Assays:
Test in all cases: AK assay 384-well format, Prestwick library screening
E. faecium = assay type: cell-based, Enterococcus faecium; settings: Enterococcus faecium, 3 h, 50 μM final drug concentration
[1] = tested on: S. aureus strain USA300-0114; assay type: cell-based, Staphylococcus aureus; settings: Staphylococcus aureus, USA300, 3 h, 50 μM final drug concentration
K. pneumoniae = assay type: cell-based, Klebsiella pneumoniae; settings: Klebsiella pneumoniae, 3 h, 50 μM final drug concentration
[2] = tested on: A. baumannii strain 98-37-09; assay type: cell-based, Acinetobacter baumannii; settings: Acinetobacter baumannii, 983709, 3 h, 50 μM final drug concentration
P. aeruginosa = assay type: cell-based, Pseudomonas aeruginosa; settings: Pseudomonas aeruginosa, 3 h, 50 μM final drug concentration
E. cloacae = assay type: cell-based, Enterobacter cloacae; settings: Enterobacter cloacae, 3 h, 50 μM final drug concentration
E. coli = assay type: cell-based, Escherichia coli; settings: Escherichia coli, 3 h, 50 μM final drug concentration
[3] = cutoff for positive-scoring molecules 3-fold increase, read-out: AK-based Prestwick Library Screening Results, E. faecium (fold increase in extracellular AK activity)
[4] = cutoff for positive-scoring molecules 3-fold increase, read-out: AK-based Prestwick Library Screening Results, S. aureus (fold increase in extracellular AK activity)
[5] = cutoff for positive-scoring molecules 3-fold increase, read-out: AK-based Prestwick Library Screening Results, K. pneumoniae (fold increase in extracellular AK activity)
[6] = cutoff for positive-scoring molecules 3-fold increase, read-out: AK-based Prestwick Library Screening Results, A. baumannii (fold increase in extracellular AK activity)
[7] = cutoff for positive-scoring molecules 3-fold increase, read-out: AK-based Prestwick Library Screening Results, P. aeruginosa (fold increase in extracellular AK activity)
[8] = cutoff for positive-scoring molecules 3-fold increase, read-out: AK-based Prestwick Library Screening Results, E. cloacae (fold increase in extracellular AK activity)
[9] = cutoff for positive-scoring molecules 3-fold increase, read-out: AK-based Prestwick Library Screening Results, E. coli (fold increase in extracellular AK activity)
[10] = planktonic E. faecium, cutoff for positive-scoring molecules 3-fold increase, read-out: AK-based Prestwick Library Screening Results, E. faecium (increase in extracellular AK activity)
[11] = planktonic S. aureus, cutoff for positive-scoring molecules 3-fold increase, read-out: AK-based Prestwick Library Screening Results, S. aureus (increase in extracellular AK activity)
[12] = planktonic K. pneumoniae, cutoff for positive-scoring molecules 3-fold increase, read-out: AK-based Prestwick Library Screening Results, K. pneumoniae (increase in extracellular AK activity)
[13] = planktonic A. baumannii, cutoff for positive-scoring molecules 3-fold increase, read-out: AK-based Prestwick Library Screening Results, A. baumannii (increase in extracellular AK activity)
[14] = planktonic P. aeruginosa, cutoff for positive-scoring molecules 3-fold increase, read-out: AK-based Prestwick Library Screening Results, P. aeruginosa (increase in extracellular AK activity)
[15] = planktonic E. cloacae, cutoff for positive-scoring molecules 3-fold increase, read-out: AK-based Prestwick Library Screening Results, E. cloacae (increase in extracellular AK activity)
[16] = planktonic E. coli, cutoff for positive-scoring molecules 3-fold increase, read-out: AK-based Prestwick Library Screening Results, E. coli (increase in extracellular AK activity)

`CC(C)NCC(O)COc1ccc(COCCOC(C)C)cc1` (stereo not drawn) [Bisoprolol fumarate] was tested, and the fold induction at 50 µM (E. faecium; planktonic E. faecium, 384-well, cutoff for positive-scoring molecules 3-fold increase, read-out: AK-based Prestwick Library Screening Results: E. faecium (increase in extracellular AK activity)) was 0.9, the fold induction at 50 µM ([1]; planktonic S. aureus, 384-well, cutoff for positive-scoring molecules 3-fold increase, read-out: AK-based Prestwick Library Screening Results: S. aureus (increase in extracellular AK activity)) was 0.6 and the fold induction at 50 µM (K. pneumoniae; planktonic K. pneumoniae, 384-well, cutoff for positive-scoring molecules 3-fold increase, read-out: AK-based Prestwick Library Screening Results: K. pneumoniae (increase in extracellular AK activity)) was 0.5. For the same compound, the fold induction at 50 µM ([2]; planktonic A. baumannii, 384-well, cutoff for positive-scoring molecules 3-fold increase, read-out: AK-based Prestwick Library Screening Results: A. baumannii (increase in extracellular AK activity)) was 0.5, the fold induction at 50 µM (P. aeruginosa; planktonic P. aeruginosa, 384-well, cutoff for positive-scoring molecules 3-fold increase, read-out: AK-based Prestwick Library Screening Results: P. aeruginosa (increase in extracellular AK activity)) was 0.5 and the fold induction at 50 µM (E. cloacae; planktonic E. cloacae, 384-well, cutoff for positive-scoring molecules 3-fold increase, read-out: AK-based Prestwick Library Screening Results: E. cloacae (increase in extracellular AK activity)) was 0.6. For the same compound, the fold induction at 50 µM (E. coli; planktonic E. coli, 384-well, cutoff for positive-scoring molecules 3-fold increase, read-out: AK-based Prestwick Library Screening Results: E. coli (increase in extracellular AK activity)) was 0.5.
With `COc1cc2c(cc1O)C[C@H]1c3c(cc(O)c(OC)c3-2)CCN1C` [Boldine] the fold induction at 50 µM (E. faecium; planktonic E. faecium, […], read-out: AK-based Prestwick Library Screening Results, E. faecium (increase in extracellular AK activity)) was 0.9, the fold induction at 50 µM ([1]; planktonic S. aureus, […], read-out: AK-based Prestwick Library Screening Results, S. aureus (increase in extracellular AK activity)) was 0.8 and the fold induction at 50 µM (K. pneumoniae; planktonic K. pneumoniae, […], read-out: AK-based Prestwick Library Screening Results, K. pneumoniae (increase in extracellular AK activity)) was 0.7. The fold induction at 50 µM ([2]; planktonic A. baumannii, […], read-out: AK-based Prestwick Library Screening Results, A. baumannii (increase in extracellular AK activity)) was 0.8, the fold induction at 50 µM (P. aeruginosa; planktonic P. aeruginosa, […], read-out: AK-based Prestwick Library Screening Results, P. aeruginosa (increase in extracellular AK activity)) was 0.9 and the fold induction at 50 µM (E. cloacae; planktonic E. cloacae, […], read-out: AK-based Prestwick Library Screening Results, E. cloacae (increase in extracellular AK activity)) was 1.2. For the same compound, the fold induction at 50 µM (E. coli; planktonic E. coli, […], read-out: AK-based Prestwick Library Screening Results, E. coli (increase in extracellular AK activity)) was 0.9.
For `CC[N+](C)(C)Cc1ccccc1Br` [Bretylium tosylate], the fold induction at 50 µM (E. faecium; [3]) was 1, the fold induction at 50 µM [1, 4] was 1.3 and the fold induction at 50 µM (K. pneumoniae; [5]) was 1.1. For the same compound, the fold induction at 50 µM [2, 6] was 1.3, the fold induction at 50 µM (P. aeruginosa; [7]) was 1.2 and the fold induction at 50 µM (E. cloacae; [8]) was 1.6. For the same compound, the fold induction at 50 µM (E. coli; [9]) was 1.3.
In the case of `CCN[C@H]1CN(CCCOC)S(=O)(=O)c2sc(S(N)(=O)=O)cc21` [Brinzolamide], the fold induction at 50 µM (E. faecium; [10]) is reported as 1.4, the fold induction at 50 µM [1, 11] is reported as 1 and the fold induction at 50 µM (K. pneumoniae; [12]) is reported as 0.9. The fold induction at 50 µM [2, 13] was 1.1, the fold induction at 50 µM (P. aeruginosa; [14]) was 1.1 and the fold induction at 50 µM (E. cloacae; [15]) was 1.5. For the same compound, the fold induction at 50 µM (E. coli; [16]) was 1.1.
`CCN(CC)CCNC(=O)c1cc(Br)c(N)cc1OC` [Bromopride] was tested, and the fold induction at 50 µM (E. faecium; [3]) was 0.9, the fold induction at 50 µM [1, 4] was 1.3 and the fold induction at 50 µM (K. pneumoniae; [5]) was 1. It also gave a fold induction at 50 µM [2, 6] of 1.3, a fold induction at 50 µM (P. aeruginosa; [7]) of 1.1 and a fold induction at 50 µM (E. cloacae; [8]) of 1.3. For the same compound, the fold induction at 50 µM (E. coli; [9]) was 1.3.
Work on `O=C(CCCN1CCC(O)(c2ccc(Br)cc2)CC1)c1ccc(F)cc1` [Bromperidol] yielded a fold induction at 50 µM (E. faecium; [10]) of 0.9, a fold induction at 50 µM [1, 11] of 0.7 and a fold induction at 50 µM (K. pneumoniae; [12]) of 0.7. For the same compound, the fold induction at 50 µM [2, 13] was 1, the fold induction at 50 µM (P. aeruginosa; [14]) was 1.1 and the fold induction at 50 µM (E. cloacae; [15]) was 1.1. It also gave a fold induction at 50 µM (E. coli; [16]) of 0.8.
`CN(C)CCC(c1ccc(Br)cc1)c1ccccn1` (stereo not drawn) [Brompheniramine maleate] showed a fold induction at 50 µM (E. faecium; planktonic, cutoff for positive 3-fold increase, read-out: AK-based Prestwick Library Screening Results, E. faecium (fold increase in extracellular AK activity)) of 1, a fold induction at 50 µM ([1]; planktonic, cutoff for positive 3-fold increase, read-out: AK-based Prestwick Library Screening Results, S. aureus (fold increase in extracellular AK activity)) of 1.1 and a fold induction at 50 µM (K. pneumoniae; planktonic, cutoff for positive 3-fold increase, read-out: AK-based Prestwick Library Screening Results, K. pneumoniae (fold increase in extracellular AK activity)) of 1.1. The fold induction at 50 µM ([2]; planktonic, cutoff for positive 3-fold increase, read-out: AK-based Prestwick Library Screening Results, A. baumannii (fold increase in extracellular AK activity)) was 1.2, the fold induction at 50 µM (P. aeruginosa; planktonic, cutoff for positive 3-fold increase, read-out: AK-based Prestwick Library Screening Results, P. aeruginosa (fold increase in extracellular AK activity)) was 1.1 and the fold induction at 50 µM (E. cloacae; planktonic, cutoff for positive 3-fold increase, read-out: AK-based Prestwick Library Screening Results, E. cloacae (fold increase in extracellular AK activity)) was 2. For the same compound, the fold induction at 50 µM (E. coli; planktonic, cutoff for positive 3-fold increase, read-out: AK-based Prestwick Library Screening Results, E. coli (fold increase in extracellular AK activity)) was 1.4.
With `CCCC(=O)Nc1ncnc2c1ncn2[C@@H]1O[C@@H]2COP(=O)(O)O[C@H]2[C@H]1OC(=O)CCC` [Bucladesine sodium salt] the fold induction at 50 µM (E. faecium; planktonic, cutoff for positive-scoring molecules 3-fold increase, read-out: AK-based Prestwick Library Screening Results, E. faecium (fold increase in extracellular AK activity)) was 0.9, the fold induction at 50 µM ([1]; planktonic, cutoff for positive-scoring molecules 3-fold increase, read-out: AK-based Prestwick Library Screening Results, S. aureus (fold increase in extracellular AK activity)) was 0.7 and the fold induction at 50 µM (K. pneumoniae; planktonic, cutoff for positive-scoring molecules 3-fold increase, read-out: AK-based Prestwick Library Screening Results, K. pneumoniae (fold increase in extracellular AK activity)) was 0.6. It also gave a fold induction at 50 µM ([2]; planktonic, cutoff for positive-scoring molecules 3-fold increase, read-out: AK-based Prestwick Library Screening Results, A. baumannii (fold increase in extracellular AK activity)) of 0.8, a fold induction at 50 µM (P. aeruginosa; planktonic, cutoff for positive-scoring molecules 3-fold increase, read-out: AK-based Prestwick Library Screening Results, P. aeruginosa (fold increase in extracellular AK activity)) of 0.8 and a fold induction at 50 µM (E. cloacae; planktonic, cutoff for positive-scoring molecules 3-fold increase, read-out: AK-based Prestwick Library Screening Results, E. cloacae (fold increase in extracellular AK activity)) of 0.9. For the same compound, the fold induction at 50 µM (E. coli; planktonic, cutoff for positive-scoring molecules 3-fold increase, read-out: AK-based Prestwick Library Screening Results, E. coli (fold increase in extracellular AK activity)) was 0.7.
In the case of `CCCC1O[C@@H]2C[C@H]3[C@@H]4CCC5=CC(=O)C=C[C@]5(C)[C@H]4[C@@H](O)C[C@]3(C)[C@]2(C(=O)CO)O1` (stereo partly drawn) [Budesonide], the fold induction at 50 µM (E. faecium; [10]) is reported as 0.9, the fold induction at 50 µM [1, 11] is reported as 0.6 and the fold induction at 50 µM (K. pneumoniae; [12]) is reported as 0.7. For the same compound, the fold induction at 50 µM [2, 13] was 0.9, the fold induction at 50 µM (P. aeruginosa; [14]) was 0.9 and the fold induction at 50 µM (E. cloacae; [15]) was 1.4. The fold induction at 50 µM (E. coli; [16]) was 0.9.
